One assay deals with PDK1 (Homo sapiens (Human), UniProt O15530). The experiment in a line: PDK1 kinase assay (coupled PDK1/AKT/FAM-crosstide assay, IMAP fluorescence polarization). The format is biochemical. The essentials:
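GST-tagged human PDK1 (aa 51-359, 0.75 nM) from insect cells activated unphosphorylated GST-AKT2 (aa 140-467–PIFtide fusion, 10 nM), which phosphorylated 100 nM FAM-crosstide; 40 μM ATP, pH 7.2 Tris/MgCl2, 30 min at 25° C. IMAP fluorescence polarization read-out; ΔmP versus compound concentration fitted with a 4-parameter curve.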
Background: In fluorescence polarisation assays a small probe gives low polarisation when free and higher when bound to something large.

Assay [1] relates to phospho-akt (Thr308) in PC-3 cells. Put plainly: Inhibition of phospho-akt (Thr308) in PC-3 cells, MSD phospho-akt 308 ELISA kit. The following applies: 2 hours, no serum, read-out: EC50. The format is cell-based. The essentials:
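Read-out is MSD electrochemiluminescence of Akt phosphorylated at Thr308 in lysates of PC-3 cells treated 2 h with compound in serum-free medium. Wortmannin at 5 μM defined the low control and DMSO the high control.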
(An ELISA detects its analyte on a solid surface through an enzyme-linked reagent.)

Setting [2] is: Homo sapiens, inhibition of P308 Akt in PC-3 cells using MSD.
The mark [3] stands for this setting: inhibition of phospo-PDK1 in vitro.
Setting [4] is: Homo sapiens, inhibition of P308 Akt in PC-3 cells, MSD.

This is an account of results in patent publication US10030016B2 (Sunesis Pharmaceuticals, Inc., priority 2009, dated 2018).

Where a name gives a salt, the structure may show the parent alone. Read-outs that look alike come from different tables or passages of the source.

Chain of PDK1 (O15530 51-359): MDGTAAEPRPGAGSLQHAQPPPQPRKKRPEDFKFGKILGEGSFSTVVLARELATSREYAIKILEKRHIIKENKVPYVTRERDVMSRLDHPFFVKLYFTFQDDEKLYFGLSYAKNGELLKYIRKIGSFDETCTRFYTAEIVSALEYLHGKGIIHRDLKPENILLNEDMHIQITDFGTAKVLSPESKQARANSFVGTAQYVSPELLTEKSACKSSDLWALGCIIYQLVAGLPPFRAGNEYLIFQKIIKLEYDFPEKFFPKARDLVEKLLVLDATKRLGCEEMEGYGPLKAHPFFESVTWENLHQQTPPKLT

On PDK1 (inhibition of PDK1 in vitro), `C[C@H](NC(=O)c1cccnc1NCc1ccc(-c2cn(C3CCC3)c3ncnc(N)c23)cc1)c1ccc(F)cc1` [Example 346, (S)-2-(4-(4-amino-7-cyclobutyl-7H-pyrrolo [2,3-d]pyrimidin-5-yl)benzylamino)-N-(1-(4-fluorophenyl)ethyl)nicotinamide] had an IC50 of 0.1 to 1 µM. Further, in assay [1] (Homo sapiens, PC-3, 2 h, inhibition of P308 Akt in PC-3 cells using MSD), the EC50 was below 1 µM.

In the case of `CNCCCc1nc(-c2ccc(CNc3ncc(C#N)cc3C(=O)N[C@@H](C)c3ccc(F)cc3)cc2)cnc1N` [Example 93, 2-{4-[5-Amino-6-(3-methylamino-propyl)-pyrazin-2-yl]-benzyl-amino}-5-cyano-N-[(S)-1-(4-fluoro-phenyl)-ethyl]-nicotinamide], the IC50 against PDK1 (inhibition of PDK1 in vitro) is below 0.1 µM. The EC50 in assay [1] (setting [2]) is below 1 µM.

In the case of `Nc1ncnc2ccc(-c3ccc(CNc4ncccc4C(=O)Nc4ccc(F)cc4)s3)cc12` [Example 3.47, 2-({[5-(4-aminoquinazolin-6-yl)thiophen-2-yl]methyl}amino)-N-(4-fluorophenyl)pyridine-3-carboxamide (TFA salt)], the IC50 at PDK1 (setting [3]) was 0.1 to 1 µM. For the same compound, the EC50 in assay [1] (setting [4]) was below 1 µM.

At PDK1 (inhibition of PDK1 in vitro), `Nc1n[nH]c2ncc(-c3ccc(CNc4ncc(C(F)(F)F)cc4C(=O)NC4CC4)cc3)cc12` [Example 260, 2-(4-(3-amino-1H-pyrazolo[3,4-b]pyridin-5-yl)benzylamino)-N-cyclopropyl-5-(trifluoromethyl)nicotinamide] gave an IC50 of 0.1 to 1 µM. In assay [1] (setting [2]), the EC50 was 1 to 10 µM.

For `CC(C)Oc1cc(CNc2ncccc2C(=O)Nc2ccc(F)c(F)c2)cc(-c2c[nH]c3ncc(C(=O)NC4CC4)cc23)c1` [Example 4.1.1, N-cyclopropyl-3-(3-((3-(3,4-difluorophenylcarbamoyl)pyridin-2-ylamino)methyl)-5-isopropoxyphenyl)-1H-pyrrolo[2,3-b]pyridine-5-carboxamide], the IC50 on PDK1 (setting [3]) lay in the range of 0.1 to 1 µM. Further, the EC50 in assay [1] (setting [4]) is above 10 µM.

In turn, `CC(C)[C@H](NC(=O)c1cccnc1NCc1ccc(-c2ccc3ncnc(N)c3c2)s1)c1ccc(F)cc1` [Example 3.45, (S)-2-((5-(4-aminoquinazolin-6-yl)thiophen-2-yl)methylamino)-N-(1-(4-fluorophenyl)-2-methylpropyl)nicotinamide (TFA salt)] yielded an IC50 against PDK1 (setting [3]) of 0.1 to 1 µM. Moreover, the EC50 in assay [1] (setting [4]) fell in the range of 1 to 10 µM.

Consider `Nc1cnc(-c2ccc(CNc3ncc(C(F)(F)F)cc3C(=O)NCc3ccc(F)c(F)c3)cn2)cn1` [Example 326], for which the IC50 against PDK1 (inhibition of PDK1 in vitro) was 0.1 to 1 µM. For the same compound, the EC50 in assay [1] (setting [2]) is above 10 µM.

In the case of `C[C@H](NC(=O)c1cc(C#N)cnc1NCc1ccc(-c2cnc(N)c(C(=O)N(C)C)n2)cc1)c1ccc(F)cc1` [Example 210, (S)-3-amino-6-(4-((5-cyano-3-(1-(4-fluorophenyl)ethylcarbamoyl)pyridin-2-ylamino)methyl)phenyl)-N,N-dimethylpyrazine-2-carboxamide], the IC50 against PDK1 (inhibition of PDK1 in vitro) is below 0.1 µM. In assay [1] (setting [2]), the EC50 lay within 1 to 10 µM.

`Nc1ncnc2ccc(-c3ccc(CNc4ncccc4C(=O)NCc4cc(F)c(F)cc4F)s3)cc12` [Example 3.11, 2-({[5-(4-aminoquinazolin-6-yl)thiophen-2-yl]methyl}amino)-N-(2,4,5-trifluorobenzyl)pyridine-3-carboxamide (TFA salt)] had an IC50 at PDK1 (setting [3]) below 0.1 µM. For the same compound, the EC50 in assay [1] (setting [4]) was above 10 µM.

At PDK1 (setting [3]), `C[C@H](NC(=O)c1cccnc1NCc1ccc(-c2ccc3ncc(N(C)C)nc3c2)s1)c1ccc(F)c(F)c1` [Example 4.27, (S)-N-(1-(3,4-difluoro-phenyl)ethyl)-2-(((5-(3-(dimethylamino)quinoxalin-6-yl)thiophen-2-yl)methyl)amino)nicotinamide] came in with an IC50 of 1 to 5 µM. Also, the EC50 in assay [1] (setting [4]) was above 10 µM.

For the compound `Nc1ccc(-c2ccc(CNc3ncccc3C(=O)Nc3ccc(F)cc3)cc2)cn1` [Example 375, 2-(4-(6-aminopyridin-3-yl)benzylamino)-N-(4-fluorophenyl)nicotinamide], on PDK1 (inhibition of PDK1 in vitro), the IC50 was 1 to 5 µM. Moreover, the EC50 in assay [1] (setting [2]) is 1 to 10 µM.

As for `C[C@H](NC(=O)c1cc(C#N)cnc1NCc1ccc(-c2cnc(N)c(CO)c2)cc1)c1ccc(F)cc1` [Example 136, (S)-2-(4-(6-amino-5-(hydroxymethyl)pyridin-3-yl)benzylamino)-5-cyano-N-(1-(4-fluorophenyl)ethyl)nicotinamide], at PDK1 (inhibition of PDK1 in vitro), the IC50 was below 0.1 µM. Further, in assay [1] (setting [2]), the EC50 is 1 to 10 µM.

Regarding `COCCNC(=O)c1c(C)[nH]c(/C=C2\C(=O)Nc3cc(/C=C/CNc4ncccc4C(=O)NCc4ccc(F)c(F)c4)ccc32)c1C` [Example 15.19, N-(3,4-difluorobenzyl)-2-((E)-3-((Z)-3-((4-(2-methoxyethylcarbamoyl)-3,5-dimethyl-1H-pyrrol-2-yl]-methylene)-2-oxoindolin-6-yl)allylamino) nicotinamide], the IC50 at PDK1 (setting [3]) is below 0.1 µM. Further, the half-maximal effective concentration (EC50) in assay [1] (setting [4]) is below 1 µM.

`N#Cc1cnc(NCc2ccc(-c3cnc4[nH]c(=O)[nH]c4c3)cc2)c(C(=O)NCc2ccc(F)cc2)c1` [Example 358, 5-cyano-N-(4-fluorobenzyl)-2-(4-(2-oxo-2,3-dihydro-1H-imidazo[4,5-b]pyridin-6-yl)benzylamino)nicotinamide]: the IC50 against PDK1 (inhibition of PDK1 in vitro) is below 0.1 µM. Moreover, in assay [1] (setting [2]), the EC50 is below 1 µM.

At PDK1 (setting [3]), `O=C(NCc1ccc(F)c(F)c1)c1cccnc1NCc1csc(-c2c[nH]c3ncncc23)n1` [Ex. 6.13, N-(3,4-difluorobenzyl)-2-({[2-(7H-pyrrolo[2,3-d]pyrimidin-5-yl)-1,3-thiazol-4-yl]-methyl}amino) pyridine-3-carboxamide] yielded an IC50 of 0.1 to 1 µM. Besides, the EC50 in assay [1] (setting [4]) is above 10 µM.

As for `C[C@H](NC(=O)c1cc(C#N)cnc1NCc1ccc(-c2cnc(N)c(C(=O)NCCN3CCN(C)CC3)n2)cc1)c1ccc(F)cc1` [Example 213, (S)-3-amino-6-(4-((5-cyano-3-(1-(4-fluorophenyl)ethylcarbamoyl)pyridin-2-ylamino)methyl)phenyl)-N-(2-(4-methylpiperazin-1-yl)ethyl)pyrazine-2-carboxamide], the IC50 at PDK1 (inhibition of PDK1 in vitro) is below 0.1 µM. Besides, the EC50 in assay [1] (setting [2]) was below 1 µM.

`CC(C)Oc1cc(CNc2ncccc2C(=O)NCc2ccc(F)c(F)c2)cc(-c2c[nH]c3ncc(C(=O)NC4CC4)cc23)c1` [Example 4.1.3, N-cyclopropyl-3-{3-[({3-[(3,4-difluoro-benzyl)carbamoyl]pyridin-2-yl}amino)methyl]-5-(propan-2-yloxy)phenyl}-1H-pyrrolo[2,3-b] pyridine-5-carboxamide] had an IC50 at PDK1 (setting [3]) below 0.1 µM. For the same compound, in assay [1] (setting [4]), the EC50 was below 1 µM.

In the case of `C[C@H](NC(=O)c1cccnc1NCc1ccc(-c2ccc3ncnc(NC4CNC4)c3c2)s1)c1ccc(F)c(F)c1` [Example 4.36, 2-({5-[4-(Azetidin-3-ylamino)-quinazolin-6-yl]-thiophen-2-ylmethyl}-amino)-N-[(S)-1-(3,4-difluoro-phenyl)-ethyl]-nicotinamide], on PDK1 (setting [3]), the 50% inhibitory concentration (IC50) was below 0.1 µM. Further, in assay [1] (setting [4]), the EC50 was 1 to 10 µM.

As to `O=C(NCc1ccc(F)c(F)c1)c1cccnc1NCc1ccc(-c2cnc3[nH]ccc3c2)s1` [Example 2.31, 2-(((5-(1H-pyrrolo[2,3-b]pyridin-5-yl)thiophen-2-yl)methyl)amino)-N-(3,4-difluorobenzyl) nicotinamide], at PDK1 (setting [3]), the IC50 was in the range of 0.1 to 1 µM. In addition, the EC50 in assay [1] (inhibition of P308 Akt in PC-3 cells, MSD) lay in the range of 1 to 10 µM.

As to `Nc1ncnc2ccc(-c3ccc(CNc4ncc(OCc5ccccc5)cc4C(=O)NCc4ccc(F)c(F)c4)s3)cc12` [Ex. 8.1.1, 2-({[5-(4-aminoquinazolin-6-yl)thiophen-2-yl]methyl}amino)-5-(benzyloxy)-N-(3,4-difluorobenzyl)pyridine-3-carboxamide], the IC50 on PDK1 (setting [3]) was below 0.1 µM. For the same compound, the EC50 in assay [1] (setting [4]) lay in the range of 1 to 10 µM.

`N#Cc1cnc(NCc2ccc(-c3cnc4[nH]c(=O)[nH]c4c3)cc2)c(C(=O)NCc2ccc(F)cc2)n1` [Example 365, 6-cyano-N-(4-fluorobenzyl)-3-(4-(2-oxo-2,3-dihydro-1H-imidazo[4,5-b]pyridin-6-yl)benzylamino)pyrazine-2-carboxamide] yielded an IC50 against PDK1 (inhibition of PDK1 in vitro) below 0.1 µM. For the same compound, the EC50 in assay [1] (setting [2]) was below 1 µM.

`C[C@H](COc1ccc2c(c1)NC(=O)/C2=C\c1cnc[nH]1)Nc1ncccc1C(=O)NCc1ccc(F)c(F)c1` [Example 24, (R,Z)-2-(1-(3-((1H-imidazol-5-yl)methylene)-2-oxoindolin-6-yloxy)propan-2-ylamino)-N-(3,4-difluorobenzyl)nicotinamide] had an IC50 against PDK1 (setting [3]) below 0.1 µM. Also, in assay [1] (setting [4]), the EC50 lay in the range of 1 to 10 µM.

On PDK1 (inhibition of PDK1 in vitro), `C[C@H](NC(=O)c1cc(C#N)cnc1NCc1ccc(-c2cnc(N)c(C(N)=O)c2)cc1)c1ccc(F)cc1` [Example 201, (S)-2-(4-(6-amino-5-carbamoylpyridin-3-yl)benzylamino)-5-cyano-N-(1-(4-fluorophenyl)ethyl)nicotinamide] gave an IC50 below 0.1 µM. For the same compound, the EC50 in assay [1] (setting [2]) was below 1 µM.

Take `Nc1ncnc2ccc(-c3ccc(CNc4ncccc4C(=O)NCc4cccc(F)c4)s3)cc12` [Example 3.9, 2-({[5-(4-aminoquinazolin-6-yl)thiophen-2-yl]methyl}amino)-N-(3-fluorobenzyl)pyridine-3-carboxamide (TFA salt)]: on PDK1 (setting [3]), the IC50 was below 0.1 µM. Moreover, in assay [1] (setting [4]), the EC50 is below 1 µM.

`CN(C)CCCn1cc(-c2ccc(CNc3ncc(C(F)(F)F)cc3C(=O)NCc3ccc(F)c(F)c3)cc2)c2c(N)ncnc21` [Example 55, 2-(4-(4-amino-7-(3-(dimethylamino)propyl)-7H-pyrrolo[2,3-d]pyrimidin-5-yl)benzylamino)-N-(3,4-difluorobenzyl)-5-(trifluoromethyl)nicotinamide] had an IC50 at PDK1 (inhibition of PDK1 in vitro) below 0.1 µM. Further, the EC50 in assay [1] (setting [2]) is below 1 µM.

Broadly, the IC50 is the concentration at which inhibition is half-maximal. Lower therefore signals greater potency. By EC50 is commonly meant the midpoint of the concentration-response curve.
